Test results published in US20240180153A1, “METHODS FOR MANAGING DISEASES IN CUT FLOWERS” (Niacet Corporation, priority 2022, published 2024).

Legend:
[1] = system: all four pathogens (B. cinerea, M. fructicola, A. alternata, C. siamense); assay: In-vitro mycelium growth inhibition, statements pooled over all four pathogens; format: cell-based
Description: (§1) A 10% buffered (pH 6.0) stock solution in autoclaved de-ionized water was used to prepare working calcium propionate solutions. Initially, five concentrations of 0, 1, 5, 25, and 100 ppm were screened for determining the effect of calcium propionate on fungal mycelia. Higher concentrations of 300, 900, 2700, and 8100 ppm were also tested in mycelium growth inhibition assays to determine EC50 values for isolates sensitive and resistant to FRAC codes 1, 2, 7, 9, 11, 12, 13, and 17 (i.e., benzimidazoles, quinone outside inhibitors, dicarboxamides, succinate dehydrogenases, phenylpyrroles, demethylation inhibitor fungicides, and anilinopyrimidines respectively).
To prepare different concentrations, calculated amount of stock solution was mixed in autoclaved (121 C for 20 mins) potato dextrose agar (PDA) after the media cooled down to appropriate temperature. Amended media with different CaP concentrations was poured in to 15×100 mm petri dishes (VWR International, LLC., Radnor, PA), and left to solidify. For mycelium growth, 5 mm plugs were obtained from the edges of freshly grown seven-day old cultures from all 24 isolates of different fungal genera including Alternaria sp., Botrytis sp., Colletotrichum sp., and Monilinia sp. (Table 1). Two culture plugs of each isolate were placed near opposite edges of individual CaP amended PDA media plates. The media plates with no CaP (0 ppm) served as control treatment. Inoculated plates were then incubated at 25° C. in dark for 7-10 days. Mycelium growth diameter was measured using a vernier caliper just before the mycelium growth of two colonies in the control media plate overlapped. […] Mycelium inhibition rates were calculated and EC50 values were determined. Additionally, the fungistatic activity of calcium propionate was determined at 8000 mg/L (0.8%; pH 6.0) concentration, buffered at pH 6 with acetic acid. […] Mycelium growth was recorded every 24 h using a vernier caliper until fungal mycelia in control treatments reached the 90 mm in diameter petri dish rim.

[2] = system: Botrytis cinerea isolate S4GBR4O; assay: Botrytis blight severity on cut roses after submerging flower-head; format: in vivo
Description: (§2) Calcium propionate concentrations of 0.1%, 0.2%, 0.3%, 0.5%, 0.75%, 1% (pH 6.0), were prepared and tested against Botrytis blight on cut roses. Treatments were applied by submerging flower-head of 15 sec in the solutions of the treatments and gently moving the flowers up and down to allow the petals to open and help the product get in touch with the most internal petals. Then, the flowers were placed vertically in open PVC boxes over heavy-duty thermoformed trays (Greenhouse Megastore, Danville, IL) containing 3 L of water. The boxes and trays were placed inside open humid chambers for 24 h, then the flowers were sprayed with a Botrytis cinerea spore suspension at 10^5 spores/ml from the previously characterized isolate S4GBR4O (Muñoz et al., 2019). The humid chambers were closed, and data collection of disease severity was taken 3, 5, and 7 days after the inoculation. Relative humidity in the humid chambers was maintained in a range of 97-100% which was verified using a psychrometer (RH300, Extech Instruments, Nashua, NH, US). Observational data on phytotoxicity symptoms were also collected. Additionally, an inoculated control, Pydiflumethophen+Fludioxonil (sold under the trademark MIRAVIS™ PRIME; Syngenta, Raleigh, NC), and a non-inoculated treatment were included in the evaluation. The experiment with CaP treatments of 0.5%, 0.75%, and 1% (pH 6.0) were conducted only once due to phytotoxicity issues. All lower dose treatments were performed twice.

[3] = system: cut roses; assay: Phytotoxicity on cut roses after submerging flower-head; format: in vivo, cultivar Orange Crush
Description: as §2

[4] = system: petunia flowers; assay: Phytotoxicity on harvested petunia flowers after spray application; format: in vivo, Petuniaxhybrida 'Dreams burgundy picotee'
Description: (§3) Calcium propionate concentrations were prepared by adding appropriate amounts in de-ionized water and tested in four separate experiments. Spray applications at 1.25%, 2.5%, and 5% (pH 7.7 and buffered with acetic acid to pH 6.5) (first experiment) and 0.5%, 0.75%, and 1% buffered with acetic acid to pH 6.5 (second experiment) were made on harvested open petunia flowers. Separately, spray applications at 0.1%, 0.2%, 0.3%, (third experiment) 0.5%, 0.75%, and 1% (fourth experiment) buffered with acetic acid to pH 6.5 were made on harvested open petunia flowers. Approximately 24 hours after spray applications, the flowers were arranged in humid chambers maintaining relative humidity of 98-100% and inoculated by spraying spore suspension (10^4 spores/ml) of B. cinerea isolate PDRK3 (Bennett et al. 2019). Fungicide applications and spore suspensions were misted onto flowers until runoff to completely cover the flower using a 4 oz clear PET plastic bullet bottle with white mist sprayer (The Cary Company, Addison, IL). The petunia flowers were evaluated 72 h after inoculation to observe botrytis blight severity and phytotoxicity using ratings from 0 to 8 scale based on the area of infected corolla (0=no infection; 8=complete necrosis), modified from Bennett (2019). Pydiflumethophen+fludioxonil (sold under the trademark MIRAVIS™ PRIME; Syngenta, Raleigh, NC) was used as a commercial fungicide control along with a non-inoculated and an inoculated control. Ten flowers were evaluated per treatment and the entire experiment was repeated twice.

[5] = system: B. cinerea isolate PDRK3; assay: Botrytis blight severity on harvested petunia flowers after spray application; format: in vivo, Botrytis cinerea
Description: as §3

[6] = system: B. cinerea; assay: In-vitro mycelium growth inhibition on CaP-amended PDA; format: cell-based, Botrytis cinerea; conditions: six isolates, pH 6.0, 25° C. dark
Description: as §1
(§4) To prepare different concentrations, calculated amount of stock solution was mixed in autoclaved (121 C for 20 mins) potato dextrose agar (PDA) after the media cooled down to appropriate temperature. […] Mycelium growth diameter was measured using a vernier caliper just before the mycelium growth of two colonies in the control media plate overlapped. […] Mycelium inhibition rates were calculated and EC50 values were determined. Additionally, the fungistatic activity of calcium propionate was determined at 8000 mg/L (0.8%; pH 6.0) concentration, buffered at pH 6 with acetic acid. […] Mycelium growth was recorded every 24 h using a vernier caliper until fungal mycelia in control treatments reached the 90 mm in diameter petri dish rim.

[7] = system: C. siamense; assay: as above; format: cell-based, Colletotrichum siamense
Description: as §1, §4

[8] = system: M. fructicola; assay: as above; format: cell-based, Monilinia fructicola; conditions: six isolates, pH 6.0, 25° C. dark
Description: as §1, §4

[9] = system: A. alternata; assay: as above; format: cell-based, Alternaria alternata
Description: as §1, §4

[10] = 8000 ppm (0.8%; pH 6.0), after 2-4 days, growth rate reaching untreated control
[11] = six isolates, amended PDA, pH 6.0, 25° C. dark

`CCC(=O)[O-].CCC(=O)[O-].[Ca+2]` [CaP, calcium propionate] was tested, and the mycelium growth inhibition ([1]; 8000 ppm (0.8%; pH 6.0), after 2-4 days of incubation) was roughly 100%, the “maximum inhibition of fungal mycelium growth” value ([1]; CaP 1, 5, 25, and 100 mg/L, preliminary experiments) was “below 20%” and the “mean EC50 of fungicide-sensitive versus fungicide-resistant isolates” value ([1]; isolates sensitive vs resistant to commonly used FRAC groups) was “not significantly different”. The “botrytis blight severity, difference to inoculated control” value ([2]; first rose experiment, 0.5%, 0.75%, and 1% CaP (pH 6.0)) was “No statistical differences”, the “efficacy against botrytis blight compared to grower standard” value ([2]; second rose experiment, 0.1% (pH 6.0) CaP) was “as effective as the grower standard Miravis Prime” and the “efficacy against botrytis blight compared to 0.3% CaP” value ([2]; second rose experiment, 0.1% CaP (pH 6.0)) was “significantly higher efficacy”. The phytotoxicity ([3]; 0.1% CaP (pH 6.0)) was “no to barely noticeable phytotoxicity”, the phytotoxicity symptoms ([3]; 0.3% and 0.2% CaP (pH 6.0)) was “minor symptoms of phytotoxicity” and the “size of phytotoxicity spots” value ([3]; 0.3% and 0.2% CaP (pH 6.0)) was 1-2 mm. For the same compound, the phytotoxicity symptoms ([3]; 0.5% CaP (pH 6.0) and higher, rounded areas in outermost petals, discolored edges) was “phytotoxicity symptoms were observed”, the phytotoxicity ([4]; experiment three, 0.1% (pH 6.5)) was “barely noticeable” and the “phytotoxicity, difference to untreated control” value ([4]; experiment three, 0.1% CaP (pH 6.5)) was “no significant difference”. The phytotoxicity ([4]; experiment three, lower concentrations 0.1%-0.3% (pH 6.5)) was “very little to no phytotoxicity”, the phytotoxicity ([4]; experiment two, 0.5% (pH 6.5)) was “barely noticeable” and the phytotoxicity ([4]; experiment two, 0.75% and 1% (pH 6.5)) was “noticeable phytotoxicity”. For the same compound, the “phytotoxicity (bleaching of petunia flower tissue)” value ([4]; first experiment, 1.25%, 2.5%, and 5% CaP (pH 6.5 and 7.7)) was “Evidence of phytotoxicity was observed”, the “phytotoxicity (bleaching of petunia flower tissue)” value ([4]; fourth experiment, 0.5%, 0.75%, and 1% CaP (pH 6.5), increased with increasing concentrations) was “Evidence of phytotoxicity was observed” and the “control efficacy with increase in concentration” value ([5]; 0.75% to 1% (fourth experiment) and 0.1% to 0.3% (third experiment), pH 6.5) was “did not correspond to an increase in control efficacy”. For the same compound, the disease severity ([5]; experiment three, all CaP treatments 0.1%, 0.2%, 0.3% (pH 6.5)) was “reduced disease severity”, the “botrytis blight control compared to the 0.5% treatment” value ([5]; experiment two, 0.75% and 1.0% CaP (pH 6.5)) was “significantly better control” and the disease severity ([5]; experiment two, all CaP treatments 0.5%, 0.75%, 1% (pH 6.5)) was “reduced disease severity”. The “botrytis blight control, lower pH vs higher pH treatment” value ([5]; first experiment, 1.25% CaP, pH 6.5 compared to pH 7.7) was “significantly better control”, the “control efficacy with increase in concentration” value ([5]; first experiment, increase from 1.25% to 5%) was “did not correspond to an increase in control efficacy” and the “botrytis blight severity vs inoculated control” value ([5]; first experiment, spray 1.25%, 2.5%, and 5% (pH 6.5 and 7.7), 72 h after inoculation) was “reduced botrytis blight compared to the inoculated control”. For the same compound, the “botrytis blight severity vs inoculated control” value ([5]; third and fourth experiments, all CaP concentrations 0.1%-1% at pH 6.5) was “reduced botrytis blight compared to the inoculated control”, the “mean EC50 mycelium growth” value [6] was 527.77 µg/mL and the “mycelium growth recovery after initial inhibition” value [7, 10] was “recovered quickly”. The “mean EC50 mycelium growth” value [7, 11] was 1310.34 µg/mL, the “mean EC50 mycelium growth” value [8] was 618.25 µg/mL and the “mycelium growth recovery after initial inhibition” value [9, 10] was “recovered quickly”. For the same compound, the “mean EC50 mycelium growth” value [9, 11] was 1354.87 µg/mL.
